The test system of this experiment is MV-4-11 cells. As to the kind of experiment: Gene expression microarray analysis (Affymetrix PrimeView) and GSEA. In kind it is cell-based, human. On the set-up: RFU PODN (11730768_x_at) / Fold change /veh PODN (11730768_x_at) / RFU LINC00158 (11744669_a_at) / Fold change /veh LINC00158 (11744669_a_at) / RFU DUSP10 (11751237_a_at) / Fold change /veh DUSP10 (11751237_a_at) / RFU ID3 (11757404_x_at) / Fold change /veh ID3 (11757404_x_at) / RFU PLEKHG5 (11737974_s_at) / Fold change /veh PLEKHG5 (11737974_s_at) / RFU LRRC4B (11730491_at) / Fold change /veh LRRC4B (11730491_at) / RFU GIMAP4 (11747438_a_at) / Fold change /veh GIMAP4 (11747438_a_at) / RFU KRT8 (11758183_x_at) / Fold change /veh KRT8 (11758183_x_at) / RFU CNN1 (11734310_a_at) / Fold change /veh CNN1 (11734310_a_at) / RFU VPS37D (11726825_at) / Fold change /veh VPS37D (11726825_at) / RFU C10orf10 (11716522_x_at) / Fold change /veh C10orf10 (11716522_x_at) / RFU KIR2DL2 /// KIR2DL4 /// KIR2DL5A /// KIR2DL5B /// KIR2DS1 /// KIR2DS2 /// KIR2DS3 /// KIR2DS4 /// KIR3DL3 /// KIR3DL3 /// KIR3DS1 (11738374_at) / Fold change /veh KIR2DL2 /// KIR2DL4 /// KIR2DL5A /// KIR2DL5B /// KIR2DS1 /// KIR2DS2 /// KIR2DS3 /// KIR2DS4 /// KIR3DL3 /// KIR3DL3 /// KIR3DS1 (11738374_at) / RFU C1QL1 (11718748_at) / Fold change /veh C1QL1 (11718748_at) / RFU TMPRSS4 (11747572_a_at) / Fold change /veh TMPRSS4 (11747572_a_at) / RFU HAMP (11756126_x_at) / Fold change /veh HAMP (11756126_x_at) / RFU RNFT2 (11725882_a_at) / Fold change /veh RNFT2 (11725882_a_at) / RFU NR4A2 (11747474_a_at) / Fold change /veh NR4A2 (11747474_a_at) / RFU ABCC12 (11746883_a_at) / Fold change /veh ABCC12 (11746883_a_at) / RFU TMEM136 (11760407_x_at) / Fold change /veh TMEM136 (11760407_x_at) / RFU CLDN22 /// WWC2 (11732394_at) / Fold change /veh CLDN22 /// WWC2 (11732394_at) / RFU HLA-DPB1 (11760878_x_at) / Fold change /veh HLA-DPB1 (11760878_x_at) / RFU SPINT1 (11716480_a_at) / Fold change /veh SPINT1 (11716480_a_at) / RFU GAP43 (11754022_s_at) / Fold change /veh GAP43 (11754022_s_at) / RFU A4GNT (11735810_at) / Fold change /veh A4GNT (11735810_at) / RFU PRB3 (11715151_x_at) / Fold change /veh PRB3 (11715151_x_at) / RFU TUBB4B (11761932_at) / Fold change /veh TUBB4B (11761932_at) / RFU CAPN14 (11732068_a_at) / Fold change /veh CAPN14 (11732068_a_at) / RFU TMCC2 (11721928_a_at) / Fold change /veh TMCC2 (11721928_a_at) / RFU IRGQ (11745062_a_at) / Fold change /veh IRGQ (11745062_a_at) / RFU FAM174B (11720279_a_at) / Fold change /veh FAM174B (11720279_a_at) / RFU TMPRSS4 (11748680_a_at) / Fold change /veh TMPRSS4 (11748680_a_at) / RFU FAM212B (11763350_a_at) / Fold change /veh FAM212B (11763350_a_at) / RFU PLEKHG5 (11743358_a_at) / Fold change /veh PLEKHG5 (11743358_a_at) / RFU ZSCAN30 (11745921_a_at) / Fold change /veh ZSCAN30 (11745921_a_at) / RFU CMKLR1 (11741424_a_at) / Fold change /veh CMKLR1 (11741424_a_at) / RFU LOC101060620 /// MAPK8IP1 (11723275_at) / Fold change /veh LOC101060620 /// MAPK8IP1 (11723275_at) / RFU SPTSSB (11747773_x_at) / Fold change /veh SPTSSB (11747773_x_at) / RFU PRSS12 (11739890_at) / Fold change /veh PRSS12 (11739890_at) / RFU BIN1 (11741810_x_at) / Fold change /veh BIN1 (11741810_x_at) / RFU WNT11 (11732464_a_at) / Fold change /veh WNT11 (11732464_a_at) / RFU C10orf10 (11716521_a_at) / Fold change /veh C10orf10 (11716521_a_at) / RFU C5orf56 (11738089_at) / Fold change /veh C5orf56 (11738089_at) / RFU CYB561 (11721691_x_at) / Fold change /veh CYB561 (11721691_x_at) / RFU ANKRD19P (11752326_a_at) / Fold change /veh ANKRD19P (11752326_a_at) / RFU OR2T12 /// OR2T33 /// OR2T8 (11738714_s_at) / Fold change /veh OR2T12 /// OR2T33 /// OR2T8 (11738714_s_at) / RFU VCAN (11748164_a_at) / Fold change /veh VCAN (11748164_a_at) / RFU JSRP1 (11732532_at) / Fold change /veh JSRP1 (11732532_at) / RFU KRTAP10-11 (11738290_x_at) / Fold change /veh KRTAP10-11 (11738290_x_at) / RFU MYO3A (11730013_a_at) / Fold change /veh MYO3A (11730013_a_at) / RFU EBF3 (11725865_a_at) / Fold change /veh EBF3 (11725865_a_at) / RFU CAMK2N1 (11719241_x_at) / Fold change /veh CAMK2N1 (11719241_x_at) / RFU C5orf56 (11738088_a_at) / Fold change /veh C5orf56 (11738088_a_at) / RFU OLFML3 (11715873_a_at) / Fold change /veh OLFML3 (11715873_a_at) / RFU LOC100653217 /// NTM (11731650_a_at) / Fold change /veh LOC100653217 /// NTM (11731650_a_at) / RFU MAPK11 (11762145_a_at) / Fold change /veh MAPK11 (11762145_a_at) / RFU FIZ1 (11724087_x_at) / Fold change /veh FIZ1 (11724087_x_at) / RFU OASL (11726364_x_at) / Fold change /veh OASL (11726364_x_at) / RFU SOX15 (11748057_x_at) / Fold change /veh SOX15 (11748057_x_at) / RFU CD79A (11719716_a_at) / Fold change /veh CD79A (11719716_a_at) / RFU HIST1H1D (11736915_at) / Fold change /veh HIST1H1D (11736915_at) / RFU CASKIN2 (11723855_a_at) / Fold change /veh CASKIN2 (11723855_a_at) / RFU LOC730098 (11760151_x_at) / Fold change /veh LOC730098 (11760151_x_at) / RFU OR4N2 (11742367_at) / Fold change /veh OR4N2 (11742367_at) / RFU PRRT2 (11749266_a_at) / Fold change /veh PRRT2 (11749266_a_at) / RFU SNX32 (11753110_a_at) / Fold change /veh SNX32 (11753110_a_at) / RFU CDHR5 (11726645_a_at) / Fold change /veh CDHR5 (11726645_a_at) / RFU RCAN1 (11760418_a_at) / Fold change /veh RCAN1 (11760418_a_at) / RFU FAM167A (11723789_a_at) / Fold change /veh FAM167A (11723789_a_at) / RFU FAM26E (11764081_at) / Fold change /veh FAM26E (11764081_at) / RFU ISYNA1 (11749810_s_at) / Fold change /veh ISYNA1 (11749810_s_at) / RFU ACY1 (11761880_at) / Fold change /veh ACY1 (11761880_at) / RFU 11764098_at / Fold change /veh 11764098_at / RFU SAMD14 (11745864_x_at) / Fold change /veh SAMD14 (11745864_x_at) / RFU NPB (11741838_a_at) / Fold change /veh NPB (11741838_a_at) / RFU TMPRSS6 (11731388_a_at) / Fold change /veh TMPRSS6 (11731388_a_at) / RFU KRTAP10-2 (11738614_at) / Fold change /veh KRTAP10-2 (11738614_at) / RFU ARHGAP8 /// PRR5-ARHGAP8 (11727945_x_at) / Fold change /veh ARHGAP8 /// PRR5-ARHGAP8 (11727945_x_at) / RFU KRTAP5-7 /// NADSYN1 (11734609_at) / Fold change /veh KRTAP5-7 /// NADSYN1 (11734609_at) / RFU RASL12 (11751679_a_at) / Fold change /veh RASL12 (11751679_a_at) / RFU CDKN2B (11736163_a_at) / Fold change /veh CDKN2B (11736163_a_at) / RFU PRF1 (11729649_at) / Fold change /veh PRF1 (11729649_at) / RFU, ZNF638 /// ZNF638-IT1 / Fold change vs veh, ZNF638 /// ZNF638-IT1 / RFU, PANK3 / Fold change vs veh, PANK3 / RFU, SH3YL1 / Fold change vs veh, SH3YL1 / RFU, ZEB2 / Fold change vs veh, ZEB2 / RFU, NRIP1 / Fold change vs veh, NRIP1 / RFU, PTTG1IP / Fold change vs veh, PTTG1IP / RFU, CAPN2 / Fold change vs veh, CAPN2 / RFU, MED14 / Fold change vs veh, MED14 / RFU, SNORA58 / Fold change vs veh, SNORA58 / RFU, C1orf63 / Fold change vs veh, C1orf63 / RFU, LRRFIP1 / Fold change vs veh, LRRFIP1 / RFU, NDUFAF7 / Fold change vs veh, NDUFAF7 / RFU, SLC12A2 / Fold change vs veh, SLC12A2 / RFU, IBTK / Fold change vs veh, IBTK / RFU, ESF1 / Fold change vs veh, ESF1 / Fold change vs veh, TMEM50B / RFU, TAOK1 / Fold change vs veh, TAOK1 / RFU, ACBD3 / Fold change vs veh, ACBD3 / RFU, TMA16 / Fold change vs veh, TMA16 / RFU, RWDD3 / Fold change vs veh, RWDD3 / RFU, BCAT1 / Fold change vs veh, BCAT1 / RFU, EDEM3 / Fold change vs veh, EDEM3 / RFU, TMEM33 / Fold change vs veh, TMEM33 / RFU, WDR75 / Fold change vs veh, WDR75 / RFU, AHCTF1 / Fold change vs veh, AHCTF1 / RFU, TFRC / Fold change vs veh, TFRC / RFU, ZDHHC17 / Fold change vs veh, ZDHHC17 / RFU, NOM1 / Fold change vs veh, NOM1 / RFU, ARL8B / Fold change vs veh, ARL8B / RFU, ZBTB11 / Fold change vs veh, ZBTB11 / RFU, TAMM41 / Fold change vs veh, TAMM41 / RFU, KIAA1704 /// LOC100996395 / Fold change vs veh, KIAA1704 /// LOC100996395 / RFU, ING1 / Fold change vs veh, ING1 / RFU, TRMT61B / Fold change vs veh, TRMT61B / RFU, FUBP3 / Fold change vs veh, FUBP3 / RFU, TP53 / Fold change vs veh, TP53 / RFU, TNKS2 / Fold change vs veh, TNKS2 / RFU, ZFP14 / Fold change vs veh, ZFP14 / RFU, ACTR2 / Fold change vs veh, ACTR2 / RFU, PPP3R1 / Fold change vs veh, PPP3R1 / RFU, PIK3R1 / Fold change vs veh, PIK3R1 / RFU, HNRNPA1 / Fold change vs veh, HNRNPA1 / RFU, RNF170 / Fold change vs veh, RNF170 / RFU, ZNF28 / Fold change vs veh, ZNF28 / RFU, RNGTT / Fold change vs veh, RNGTT / RFU, OGT / Fold change vs veh, OGT / RFU, BRD1 / Fold change vs veh, BRD1 / RFU, MARS / Fold change vs veh, MARS / RFU, ZNF655 / Fold change vs veh, ZNF655 / RFU, FAHD1 / Fold change vs veh, FAHD1 / RFU, BDP1 / Fold change vs veh, BDP1 / RFU, LRRCC1 / Fold change vs veh, LRRCC1 / RFU, ARID1A / Fold change vs veh, ARID1A / RFU, ZNF146 / Fold change vs veh, ZNF146 / RFU, ZNF330 / Fold change vs veh, ZNF330 / RFU, GPN3 / Fold change vs veh, GPN3 / RFU, C9orf123 / Fold change vs veh, C9orf123 / RFU, N4BP2L2 / Fold change vs veh, N4BP2L2 / RFU, ARFIP1 / Fold change vs veh, ARFIP1 / RFU, FAM179B / Fold change vs veh, FAM179B / RFU, BCL10 / Fold change vs veh, BCL10 / RFU, UHRF1BP1L / Fold change vs veh, UHRF1BP1L / RFU, BET1 / Fold change vs veh, BET1 / RFU, CNOT2 / Fold change vs veh, CNOT2 / RFU, ZNF268 / Fold change vs veh, ZNF268 / Fold change vs veh, ZNF507 / RFU, DGCR2 / Fold change vs veh, DGCR2 / RFU, WDSUB1 / Fold change vs veh, WDSUB1 / Fold change vs veh, HSP90B1 /// MIR3652 / RFU, ADSS / Fold change vs veh, ADSS / RFU, GK / Fold change vs veh, GK / RFU, ZNF148 / Fold change vs veh, ZNF148 / RFU, TAF9 / Fold change vs veh, TAF9 / RFU, SLC1A5 / Fold change vs veh, SLC1A5 / RFU, SLMO2 / Fold change vs veh, SLMO2 / RFU, ABCC4 / Fold change vs veh, ABCC4 / RFU, LOC101060439 /// RAP1B / Fold change vs veh, LOC101060439 /// RAP1B / RFU, RFX7 / Fold change vs veh, RFX7 / RFU, GTPBP10 / Fold change vs veh, GTPBP10 / RFU, CNEP1R1 / Fold change vs veh, CNEP1R1 / RFU, BIVM-ERCC5 /// ERCC5 / Fold change vs veh, BIVM-ERCC5 /// ERCC5 / RFU, ILF3 / Fold change vs veh, ILF3 / RFU 11762660_at / Fold change /veh 11762660_at / RFU VCAN (11757783_s_at) / Fold change /veh VCAN (11757783_s_at) / RFU DDX43 (11728927_at) / Fold change /veh DDX43 (11728927_at) / RFU KRT8 (11758188_x_at) / Fold change /veh KRT8 (11758188_x_at) / RFU NKD1 (11759106_at) / Fold change /veh NKD1 (11759106_at) / RFU SRD5A1 (11742802_a_at) / Fold change /veh SRD5A1 (11742802_a_at) / RFU TPSAB1 /// TPSB2 (11721975_s_at) / Fold change /veh TPSAB1 /// TPSB2 (11721975_s_at) / RFU GSTM3 (11746129_a_at) / Fold change /veh GSTM3 (11746129_a_at) / RFU IL23R (11737362_x_at) / Fold change /veh IL23R (11737362_x_at) / RFU TMEM51 (11727254_a_at) / Fold change /veh TMEM51 (11727254_a_at) / RFU PIWIL2 (11732686_x_at) / Fold change /veh PIWIL2 (11732686_x_at) / RFU ORM1 (11744905_x_at) / Fold change /veh ORM1 (11744905_x_at) / RFU CCDC152 (11743942_at) / Fold change /veh CCDC152 (11743942_at) / RFU ECM1 (11717891_a_at) / Fold change /veh ECM1 (11717891_a_at) / RFU IL23R (11748794_a_at) / Fold change /veh IL23R (11748794_a_at) / RFU TNFAIP8L3 (11732012_x_at) / Fold change /veh TNFAIP8L3 (11732012_x_at) / RFU MBOAT4 (11741988_at) / Fold change /veh MBOAT4 (11741988_at) / RFU 11764193_at / Fold change /veh 11764193_at / RFU TMEM53 (11763286_at) / Fold change /veh TMEM53 (11763286_at) / RFU MAGEB2 (11727129_at) / Fold change /veh MAGEB2 (11727129_at) / RFU TMEM200A (11744735_a_at) / Fold change /veh TMEM200A (11744735_a_at) / RFU CCDC152 (11751479_a_at) / Fold change /veh CCDC152 (11751479_a_at) / RFU FAM211A (11726209_a_at) / Fold change /veh FAM211A (11726209_a_at) / RFU RGS16 (11746705_a_at) / Fold change /veh RGS16 (11746705_a_at) / RFU VCAN (11755009_s_at) / Fold change /veh VCAN (11755009_s_at) / RFU RHOB (11743442_s_at) / Fold change /veh RHOB (11743442_s_at) / RFU RGS16 (11720943_a_at) / Fold change /veh RGS16 (11720943_a_at) / RFU RGS16 (11720944_at) / Fold change /veh RGS16 (11720944_at) / RFU, VPS4B / Fold change vs veh, VPS4B / RFU, CREB1 / Fold change vs veh, CREB1 / RFU, DNAJC13 / Fold change vs veh, DNAJC13 / RFU, GNAQ / Fold change vs veh, GNAQ / RFU, CDK5R1 / Fold change vs veh, CDK5R1 / RFU, ZRANB3 / Fold change vs veh, ZRANB3 / RFU, CUL4A / Fold change vs veh, CUL4A / RFU, CCNY / Fold change vs veh, CCNY / RFU, UFL1 / Fold change vs veh, UFL1 / RFU, COG3 / Fold change vs veh, COG3 / RFU, DIAPH2 / Fold change vs veh, DIAPH2 / RFU, SKA2 / Fold change vs veh, SKA2 / RFU, AFF3 / Fold change vs veh, AFF3 / RFU, LMF1 / Fold change vs veh, LMF1 / RFU, IPO11 / Fold change vs veh, IPO11 / RFU, DFFB / Fold change vs veh, DFFB / RFU, FOXP1 / Fold change vs veh, FOXP1 / RFU, CARD8 / Fold change vs veh, CARD8 / RFU, STRN3 / Fold change vs veh, STRN3 / RFU, ADK / Fold change vs veh, ADK / RFU, RASSF2 / Fold change vs veh, RASSF2 / RFU, WIPF1 / Fold change vs veh, WIPF1 / RFU, LARP1B / Fold change vs veh, LARP1B / RFU, RASA1 / Fold change vs veh, RASA1 / RFU, RB1 / Fold change vs veh, RB1 / RFU, PPFIA1 / Fold change vs veh, PPFIA1 / RFU, MAT2A / Fold change vs veh, MAT2A / RFU, CCT5 / Fold change vs veh, CCT5 / RFU, WDR92 / Fold change vs veh, WDR92 / RFU, CUX1 / Fold change vs veh, CUX1 / RFU, TTC7A / Fold change vs veh, TTC7A / RFU, TMEM135 / Fold change vs veh, TMEM135 / RFU, DEPTOR / Fold change vs veh, DEPTOR / RFU, CPM / Fold change vs veh, CPM / RFU, DNAJB6 / Fold change vs veh, DNAJB6 / RFU, CACNA2D3 / Fold change vs veh, CACNA2D3 / RFU, DTX4 / Fold change vs veh, DTX4 / RFU, TFCP2 / Fold change vs veh, TFCP2 / RFU, GMCL1 /// GMCL1P1 / Fold change vs veh, GMCL1 /// GMCL1P1 / RFU, AEBP2 / Fold change vs veh, AEBP2 / RFU, SNHG1 /// SNORD22 /// SNORD25 /// SNORD26 /// SNORD27 /// SNORD28 /// SNORD29 /// SNORD31 / Fold change vs veh, SNHG1 /// SNORD22 /// SNORD25 /// SNORD26 /// SNORD27 /// SNORD28 /// SNORD29 /// SNORD31 / Fold change (Aza/veh), C12orf56 (ProbeSet 11735607_a_at) / Fold change (ACY-1035/veh), C12orf56 (ProbeSet 11735607_a_at) / Fold change (Aza/veh), FGFR1OP (ProbeSet 11751329_s_at) / Fold change (ACY-1035/veh), FGFR1OP (ProbeSet 11751329_s_at) / Fold change (Aza/veh), VPS36 (ProbeSet 11739960_a_at) / Fold change (ACY-1035/veh), VPS36 (ProbeSet 11739960_a_at) / RFU SYPL1 (11715823_x_at) / Fold change /veh SYPL1 (11715823_x_at) / RFU IGFBP7 (11715501_s_at) / Fold change /veh IGFBP7 (11715501_s_at) / RFU REEP3 (11722064_at) / Fold change /veh REEP3 (11722064_at) / RFU IGLL1 (11728026_x_at) / Fold change /veh IGLL1 (11728026_x_at): dose or concentration left out as unconfirmed. Particulars: ProbeSet 11759094_a_at; LIST D.

As for `Nc1ncn([C@@H]2O[C@H](CO)[C@@H](O)[C@H]2O)c(=O)n1` [azacitidine], the “Fold change vs veh, GNAQ” value is given as 0.76.

The record behind these values is paper PMC5218480 (PLoS ONE, 2017).
